Measured values from patent publication US7812022B2 (GlaxoSmithKline LLC, priority 2004, dated 2010).
pIC50: −log10 of the molar value.

Legend:
[1] = tested on: BT474 and HN5 tumor cell lines; assay: Celltiter Glo growth inhibition assay (cellular Method B); format: cell-based; conditions: Homo sapiens, BT-474, 72 h, 3 days, read-out: Activity (Method): growth inhibition IC50 class
Description: (§1) Human breast tumor cells (BT474) were cultured in RPMI, (Invitrogen, 22400) containing 10% fetal bovine serum (FBS). Human head and neck tumor cells (HN5) were cultured in low glucose DMEM (Invitrogen, 12320) containing 10% FBS. Human colon tumor cells (Colo205) were cultured in DMEM (Invitrogen, 10564) containing 10% FBS. All cell lines were maintained at 37° C. in a humidified 5% CO2, 95% air incubator. Cells were harvested using trypsin/EDTA, counted using a haemocytometer, and plated in 30 microliters of the appropriate media described above, at the following densities, in a half area, black-walled, 96-well tissue culture plate (Corning 3882): BT474 3,000 cells/well, HN5 500 cells/well and Colo205 cells, 3,000 cells/well. The next day, compounds were diluted in DMEM containing […] gentamicin, from 10 mM stock solutions in DMSO. 30 microliters/well of these dilutions were added to the 30 microliters/well of media currently on the cell plates. Medium containing 0.6% DMSO was added to control wells. The final concentration of DMSO in all wells was 0.3%. Cells were incubated at 37° C., 5% CO2 for 3 days. Cell biomass was estimated using Celltiter Glo (Promega G7571). Briefly, plates were removed from the incubator and allowed to equilibrate to rt for 30 minutes. 60 microliters of Celltiter Glo reagent were added to each well of the treated cells and plates were shaken on an orbital plate shaker for 2 min. Plates were incubated without shaking for 30 more min and read in a luminometer with an integration time of 0.5 seconds per well. Percent inhibition of cell growth was calculated relative to vehicle treated control wells. Concentration of compound that inhibits 50% of vehicle control cell growth (IC50) was interpolated using nonlinear regression (Levenberg-Marquardt) and the equation, y=Vmax*(1−(x/(K+x)))+Y2, where “K” was equal to the IC50.

ErbB2 or EGFR = target: T1, ErbB2 or EGFR; assay: ErbB family substrate phosphorylation enzyme assay (HTRF), Method A or Method B; format: biochemical; conditions: Method B: enzyme mix pre-incubated with compound 1 hour at 20° C., started with substrate mix
T1 construct: enzymes purified from a baculovirus expression system; Reagent production was conducted essentially as described in Brignola, P. S., et al, (2002) J. Biol. Chem. 277(2): 1576-1585
Method in brief: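 Baculovirus-expressed EGFR or ErbB2 (0.8 or 10 nM in enzyme mix) phosphorylates biotinylated Peptide C with 20 µM ATP and 0.8 µM peptide (substrate-mix levels), MnCl2, pH 7.5. Reaction ran 90 min at 20 °C with EDTA stop and HTRF anti-phosphotyrosine read. Method A: enzyme added last; Method B: 1 h enzyme–compound preincubation.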

Colo205 tumor cell lines = assay: Celltiter Glo growth inhibition assay (cellular Method B), Colo205; format: cell-based; conditions: Homo sapiens, COLO 205, 72 h, 3 days, read-out: Activity (Method): growth inhibition IC50 class
Description: as §1

[2] = tested on: BT474 and HN5 tumor cell lines; assay: Methylene blue growth inhibition assay (cellular Method A); format: cell-based, Human; conditions: Homo sapiens, BT-474, 72 h, 3 days, read-out: Activity (Method): growth inhibition IC50 class
Method in brief: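 Colo205, BT474 and HN5 cells in DMEM/10% FBS (BT474 10,000, HN5 3,000 cells/well) treated next day with compound in DMEM, 0.3% final DMSO, for 3 days at 37° C. Biomass stained with methylene blue, solubilized, read at OD 620; IC50 interpolated by nonlinear regression from % inhibition versus vehicle.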

Structure (SMILES)	pIC50 [1]	pIC50 (Colo205 tumor cell lines)	pIC50 [2]	Activity (Method): pIC50 class against ErbB2 or EGFR (ErbB2 or EGFR)
CN1CCc2ccc(Nc3ncc(F)c(-c4c(-c5cccc(NC(=O)c6c(F)cccc6F)c5)nn5ccccc45)n3)cc2C1 [Example 203, 2,6-Difluoro-N-[3-(3-{5-fluoro-2-[(2-methyl-1,2,3,4-tetrahydro-7-isoquinolinyl)amino]-4-pyrimidinyl}pyrazolo[1,5-a]pyridin-2-yl)phenyl]benzamide]	> 7.00	6.00 to 7.00		+++ (B) (at least one pIC50 measurement of greater than 7 against either ErbB2 or EGFR)
COc1ccc(Nc2nccc(-c3c(-c4cccc(NC(=O)c5c(F)cccc5F)c4)nn4ccccc34)n2)cc1OCCCN(C)C.O=CO [Example 165, N-{3-[3-(2-{[3-{[3-(Dimethylamino)propyl]oxy}-4-(methyloxy)-phenyl]amino}-4-pyrimidinyl)pyrazolo[1,5-a]pyridin-2-yl]phenyl}-2,6-difluorobenzamide formic acid salt]	> 7.00	< 6.00		+++ (B) (at least one pIC50 measurement of greater than 7 against either ErbB2 or EGFR)
CN(C)CCOc1cccc(Nc2nccc(-c3c(-c4ccc(F)c(NC(=O)c5c(F)cccc5F)c4)nn4ccccc34)n2)c1 [Example 182, N-[5-(3-{2-[(3-{[2-(Dimethylamino)ethyl]oxy}phenyl)amino]-4-pyrimidinyl}pyrazolo[1,5-a]pyridin-2-yl)-2-fluorophenyl]-2,6-difluorobenzamide]	> 7.00	6.00 to 7.00		+++ (B) (at least one pIC50 measurement of greater than 7 against either ErbB2 or EGFR)
NCc1cccc(Nc2nccc(-c3c(-c4cccc(NC(=O)c5cc(F)ccc5F)c4)nn4ccccc34)n2)c1 [Example 184, N-{3-[3-(2-{[3-(Aminomethyl)phenyl]amino}-4-pyrimidinyl)pyrazolo[1,5-a]pyridin-2-yl]phenyl}-2,5-difluorobenzamide]	> 7.00	< 6.00		+++ B) (at least one pIC50 measurement of greater than 7 against either ErbB2 or EGFR)
O=C(Nc1cccc(-c2nn3cc(F)ccc3c2-c2ccnc(Nc3cccc(CN4CCCC4)c3)n2)c1)c1c(F)cccc1F [Example 172, 2,6-Difluoro-N-{3-[6-fluoro-3-(2-{[3-(1-pyrrolidinylmethyl)phenyl]amino}-4-pyrimidinyl)pyrazolo[1,5-a]pyridin-2-yl]phenyl}benzamide]	> 7.00	< 6.00		+++ (B) (at least one pIC50 measurement of greater than 7 against either ErbB2 or EGFR)
CN1CCN(CCCOc2ccc(Nc3nccc(-c4c(-c5cccc(NC(=O)c6c(F)cccc6F)c5)nn5ccccc45)n3)cc2Cl)CC1 [Example 164, N-[3-(3-{2-[(3-chloro-4-{[3-(4-methyl-1-piperazinyl)propyl]oxy}-phenyl)amino]-4-pyrimidinyl}pyrazolo[1,5-a]pyridin-2-yl)phenyl]-2,6-difluorobenzamide]	> 7.00	< 6.00		+++ (B) (at least one pIC50 measurement of greater than 7 against either ErbB2 or EGFR)
CN(C)CCOc1cccc(Nc2nccc(-c3c(-c4cccc(NC(=O)c5c(F)cccc5F)c4)nn4cc(F)ccc34)n2)c1 [Example 171, N-[3-(3-{2-[(3-{[2-(Dimethylamino)ethyl]oxy}phenyl)amino]-4-pyrimidinyl}-6-fluoropyrazolo[1,5-a]pyridin-2-yl)phenyl]-2,6-difluorobenzamide]	> 7.00	< 6.00		+++ (B) (at least one pIC50 measurement of greater than 7 against either ErbB2 or EGFR)
CN(C)C1Cc2ccc(Nc3nccc(-c4c(-c5ccc(F)c(NC(=O)c6c(F)cccc6F)c5)nn5ccccc45)n3)cc2C1.O=C(O)C(F)(F)F (stereo not drawn) [Example 181, N-{5-[3-(2-{[2-(Dimethylamino)-2,3-dihydro-1H-inden-5-yl]amino}-4-pyrimidinyl)pyrazolo[1,5-a]pyridin-2-yl]-2-fluorophenyl}-2,6-difluorobenzamide]	> 7.00	6.00 to 7.00		+++ (B) (at least one pIC50 measurement of greater than 7 against either ErbB2 or EGFR)
CN(C)CCOc1cccc(Nc2nccc(-c3c(-c4cccc(NC(=O)c5c(F)cccc5F)c4)nn4cccc(F)c34)n2)c1 [Example 168, N-[3-(3-{2-[(3-{[2-(Dimethylamino)ethyl]oxy}phenyl)amino]-4-pyrimidinyl}-4-fluoropyrazolo[1,5-a]pyridin-2-yl)phenyl]-2,6-difluorobenzamide]	> 7.00	< 6.00		+++ (B) (at least one pIC50 measurement of greater than 7 against either ErbB2 or EGFR)

Continued, in another order:

pIC50 [1]	pIC50 (Colo205 tumor cell lines)	pIC50 [2]	Structure (SMILES)	Activity (Method): pIC50 class against ErbB2 or EGFR (ErbB2 or EGFR)
> 7.00	< 6.00		CN(C)CCOc1ccc(Nc2nccc(-c3c(-c4cccc(NC(=O)c5c(F)cccc5F)c4)nn4ccccc34)n2)cc1Cl [Example 128, N-[3-(3-{2-[(3-Chloro-4-{[2-(dimethylamino)ethyl]-oxy}phenyl)amino]-4-pyrimidinyl}pyrazolo[1,5-a]pyridin-2-yl)phenyl]-2,6-difluorobenzamide]	+++ (B) (at least one pIC50 measurement of greater than 7 against either ErbB2 or EGFR)
> 7.00	< 6.00		O=C(Nc1cccc(-c2nn3ccccc3c2-c2ccnc(Nc3cccc(F)c3)n2)c1)c1c(F)cccc1F [Example 115, 2,6-Difluoro-N-[3-(3-{2-[(3-fluorophenyl)amino]-4-pyrimidinyl}pyrazolo[1,5-a]pyridin-2-yl)phenyl]benzamide]	++ (B) (at least one pIC50 measurement greater than 6 against either ErbB2 or EGFR but no measurement greater than pIC50 of 7)
> 7.00	< 6.00		CNCc1cccc(Nc2nccc(-c3c(-c4cccc(NC(=O)c5c(F)cccc5F)c4)nn4ccccc34)n2)c1 [Example 183, 2,6-Difluoro-N-(3-{3-[2-({3-[(methylamino)methyl]phenyl}amino)-4-pyrimidinyl]pyrazolo[1,5-a]pyridin-2-yl}phenyl)benzamide]	+++ (B) (at least one pIC50 measurement of greater than 7 against either ErbB2 or EGFR)
> 7.00	< 6.00		NCc1cccc(Nc2nccc(-c3c(-c4cccc(NC(=O)c5c(F)cccc5F)c4)nn4ccccc34)n2)c1 [Example 180, N-{3-[3-(2-{[3-(Aminomethyl)phenyl]amino}-4-pyrimidinyl)pyrazolo[1,5-a]pyridin-2-yl]phenyl}-2,6-difluorobenzamide]	+++ (B) (at least one pIC50 measurement of greater than 7 against either ErbB2 or EGFR)
	6.00 to 7.00	> 7.00	Cc1ncoc1-c1cccc(Nc2nccc(-c3c(-c4cccc(NC(=O)c5c(F)cccc5F)c4)nn4ccccc34)n2)c1 [Example 178, 2,6-Difluoro-N-{3-[3-(2-{[3-(4-methyl-1,3-oxazol-5-yl)phenyl]amino}-4-pyrimidinyl)pyrazolo[1,5-a]pyridin-2-yl]phenyl}benzamide]	+++ (B) (at least one pIC50 measurement of greater than 7 against either ErbB2 or EGFR)
